Source: the NIST ThermoML archive (doi:10.1021/acs.jced.5b01075)
Values joined by “and” are separate entries in the source; they are usually repeats but may differ in a detail not shown here. Equal entries are not always repeated. Numbers after ± are expanded uncertainties.

Conditions: 101.33 kPa, Liquid; for speed of sound: Sing-around technique in a fixed-path interferometer; for mass density: Vibrating tube method

SMILES: Cc1ccccc1 [toluene]
- speed of sound (293.15 K): 1326.5 ± 0.7 m/s
- mass density (293.15 K): 866.816 ± 0.16 kg/m3 and 866.8 ± 0.4 kg/m3
- speed of sound (303.15 K): 1283.5 ± 0.7 m/s
- mass density (303.15 K): 857.497 ± 0.16 kg/m3 and 857.5 ± 0.4 kg/m3
- speed of sound (313.15 K): 1241 ± 0.7 m/s
- mass density (313.15 K): 848.114 ± 0.16 kg/m3 and 848.1 ± 0.4 kg/m3
- speed of sound (323.15 K): 1198.9 ± 0.6 m/s
- mass density (323.15 K): 838.661 ± 0.17 kg/m3 and 838.7 ± 0.4 kg/m3
- speed of sound (333.15 K): 1157.5 ± 0.6 m/s
- mass density (333.15 K): 829.124 ± 0.17 kg/m3 and 829.1 ± 0.4 kg/m3
- mass density (343.15 K): 819.5 ± 0.4 kg/m3
- mass density (353.15 K): 809.7 ± 0.4 kg/m3
